Structures are written as SMILES. Where only a bound is given, the exact number is not on record here.

Holding throughout (type): in vivo, NOD/SCID mice
Data set [1] can be described thus: plasmacytoma model, subcutaneous U266 myeloma xenografts. The settings on record: male, NOD/SCID (NOD.CB17-Prkdc^scid/IcrCrl), mouse, plasma, sc, 14.5 mg/kg/day; continual infusion via osmotic pumps, 14.5 mg/kg/d; SEM, n=16; read-out: plasma concentration at the steady state. As for the experimental part: (§1) Values denote means±SEM (n=16). ***, p<0.001.
(§2) Mice were housed in the animal facilities at Hammersmith. All experiments were conducted under PPL 70/6874, after approval by the Imperial College Ethical Review Process and the Home Office. For the plasmacytoma model, NOD/SCID mice (NOD.CB17-Prkdc^scid/IcrCrl; Charles River) were injected subcutaneously with 1.0×10^7 U266 or KMS-11 multiple myeloma cells, and then randomized into treatment groups and treated by infusion, as shown. Tumour volumes were measured as described in Mauro et al., 2011. For the orthotopic multiple myeloma model, mice of the same strain were sub-lethally irradiated and then injected intravenously with 1.0×10^7 KMS-12-BM multiple myeloma cells, as described in Rabin et al., 2007). Mice were then randomized into treatment groups and treated by infusion for 8 weeks, as shown. Animals were monitored daily and euthanized on day 161 of treatment start or when they reached any of the end-points in the PPL. Additional details are provided in the Supplemental Experimental Procedures.
(§3) Mice were housed in the animal facilities at the Hammersmith Campus, Imperial College London, and experiments were conducted under the Home Office Authority (PPL 70/6874). The PPL was reviewed by the Imperial College Ethical Review Process (ERP) and the Home Office. For experiments in the subcutaneous xenograft models (FIGS. 16-17), 6 to 8-week old male NOD/SCID mice (NOD.CB17-Prkdc^scid/IcrCrl; Charles River) were injected intraperitoneally with anti-CD122 monoclonal antibody (TM-β1 clone; 200 μg/mouse) (Tanaka et al., 1991) and, 24 hr later, subcutaneously in the left flank with 1.0×10^7 U266 or KMS-11 human multiple myeloma cells resuspended in 200 μL of sterile PBS and Matrigel (1:1) (BD Biosciences), using a 1-mL Luer-Lok™ Tip syringe (BD Biosciences) with a 25-gauge needle (Bhutani et al., 2007). U266 and KMS-11 cells were harvested from exponentially growing cultures, washed once with serum-free medium, and resuspended in PBS immediately before injection (Bhutani et al., 2007). The anti-CD122 antibody was affinity purified using HiTrap Protein G HP columns (GE Healthcare), according to the manufacturer's instructions. One week after injection of the cells, when tumour volumes had reached approximately 100 mm^3 (U266 cells) or tumours had yet to be palpable (KMS-11 cells), mice were randomized into treatment groups (n=16 or n=4 per group, respectively; day 0) (Bhutani et al., 2007) and, then, treated by continual infusion of DTP3 at a dose of 14.5 mg/kg/d, yielding a plasma concentration of 0.70±0.09 μM (SEM; n=16), or PBS. Treatments were administered using Alzet osmotic pumps (model 1004; 28-day delivery at the rate of […]; Charles River), implanted surgically subcutaneously into the right flank of each mouse, according to the manufacturer's instructions (Gullapalli et al., 2012). For systemic administration, DTP3 was dissolved at the concentration of 147 mg/mL in PBS, and mice were euthanized on day 28 of the start of treatment with CO2. Tumour diameters were measured at the indicated times using a vernier calliper, and volumes were estimated from calliper measurements using the following equation: volume=A×B^2/2 (where A is the larger diameter, and B is the smaller diameter of the tumour) (Mauro et al., 2011). Results were reproduced at least twice. The plasma concentration of DTP3 was measured at the steady state by LC-MS/MS at Cyprotex, as described above.

For data set [2], the system named is subcutaneous U266 myeloma xenografts. Described as above. Conditions: for effect on established subcutaneous myeloma xenografts (tumour volume): to day 28. The protocol:
as §1, §2, §3

Data set [3] has as its system medullary KMS-12 multiple myeloma xenografts. Conditions: 29 mg/kg/day intermittent infusion over 8 weeks; experimental end-point day 161. The protocol: as §2, with “Mice were then randomized into treatment groups and treated by infusion for 8 weeks, as shown.” left out, “Additional details are provided in the Supplemental Experimental Procedures.” left out
For experiments in the medullary xenograft model, 6 to 8-week old male NOD/SCID mice (NOD.CB17-Prkdc^scid/IcrCrl; Charles River) were sub-lethally irradiated (3.50 Gy) and, then, injected intraperitoneally with purified anti-CD122 monoclonal antibody (200 μg/mouse), as above. […] Animals were monitored daily for weight loss and other clinical signs of medullary disease, such as hind limb paralysis and behavioural changes, and euthanized with CO2 on day 161 of treatment start or when the disease severity reached any of the end-points stated in the PPL. […]

Where [4] appears, read: 14.5 mg/kg/day continual infusion.
The mark [5] stands for this setting: 14.5 mg/kg/day, results not shown.

On to `CC(=O)N[C@H](Cc1ccc(O)cc1)C(=O)N[C@H](CCCNC(=N)N)C(=O)N[C@H](Cc1ccccc1)C(N)=O` [DTP3, Acetyl-Tyr-Arg-Phe-NH2], for which the level at time molar in data set [1] was roughly 1 µM. In data set [2] (setting [4]), the side effects result is “absence of any apparent side effects” and the “effect on established subcutaneous myeloma xenografts (tumour volume)” value is on record as “virtually eradicated”. The “effect on established subcutaneous myeloma xenografts (tumour volume)” value in data set [2] (14.5 mg/kg/day continual infusion, listed as DTP-3) is “dramatic shrinkage of the tumors”. Also, in data set [2] (setting [5]), the “appearance of caspase-3 and PARP-1 proteolysis products in tumour” value came to 3 days; the “appearance of phosphorylated JNK in tumour after onset of treatment” value was determined as 24 h. In addition, in data set [3], the “median OS” value is greater than 161 days.

These data come from patent US20170240592A1, “GADD45BETA/MKK7 INHIBITOR FOR THE TREATMENT OF A RESISTANT HAEMATOLOGICAL MALIGNANCY” (IMPERIAL INNOVATIONS LIMITED, priority 2014, published 2017).
